In patent publication US11197878B2, “Anti-inflammatory composition including novel quercetin-based compound” (AMOREPACIFIC CORPORATION, priority 2017, dated 2021):

Columns and labels:
[1] = tested on: PGE2 (Prostaglandin E2); assay: Test for inhibiting generation of PGE2 in H2O2-stimulated fibroblast (ELISA); assay type: cell-based
Protocol: (§1) Fibroblast (PromoCell, Germany) was inoculated in a 6-well culturing plate at a concentration of 1×10^5 cells, and cultured in a 5% CO2 incubator at 37° C. for 24 hours. The well was treated with H2O2 500 μM and stimulated for 24 hours, and then were treated with quercetin3-O-[3-O″-(E)-p-coumaroyl][β-D-glucopyranosyl-(1→3)-O-α-L-rhamnopyranosyl-(1→6)-O-β-D-glucopyranoside] (‘New Material 31’) and quercetin3-O-[3-O″-(E)-p-coumaroyl][α-L-rhamnopyranosyl-(1→6)-O-β-D-glucopyranoside]) (‘New Material 32’) at a concentration of 100 μg/ml, respectively, and reacted for 48 hours. After the reaction was finished, the culture medium was collected and the ELISA analysis was performed. Herein, α-bisabolol, which is the material typically used as an anti-inflammatory agent and abirritant, was used as a control. As PGE2, a kit of Assay Design® was used, and as IL-6 and IL-8, a kit of Endogen® was used, and the test was carried out according to the methods prescribed in the manuals of the respective companies. (‘31’ refers to New Material 31, and ‘32’ refers to New Material 32) Inhibition effect={1−(test sample−control)/(H2O2−control)}×100 <Equation 1>

[2] = tested on: IL-8 (Interleukin 8); assay: Test for inhibiting generation of IL-8 in H2O2-stimulated fibroblast (ELISA); assay type: cell-based
Protocol: as §1

[3] = tested on: skin; assay: Test for skin accumulated stimulus, HRIPT (Human repeated insult patch tests); assay type: in vivo; conditions: for Number of examinees who exhibited ±, +, or ++ reactivity, 1st: 1st patch; for Number of examinees who exhibited ±, +, or ++ reactivity, 2nd: 2nd patch; for Number of examinees who exhibited ±, +, or ++ reactivity, 3rd: 3rd patch; for Number of examinees who exhibited ±, +, or ++ reactivity, 4th: 4th patch; for Number of examinees who exhibited ±, +, or ++ reactivity, 5th: 5th patch; for Number of examinees who exhibited ±, +, or ++ reactivity, 6th: 6th patch; for Number of examinees who exhibited ±, +, or ++ reactivity, 7th: 7th patch; for Number of examinees who exhibited ±, +, or ++ reactivity, 8th: 8th patch; for Number of examinees who exhibited ±, +, or ++ reactivity, 9th: 9th patch
Protocol: HRIPT (Human repeated insult patch tests) was conducted in order to identify skin accumulated stimulus of quercetin3-O-[3-O″-(E)-p-coumaroyl][β-D-glucopyranosyl-(1→3)-O-α-L-rhamnopyranosyl-(1→6)-O-β-D-glucopyranoside] and quercetin3-O-[3-O″-(E)-p-coumaroyl][α-L-rhamnopyranosyl-(1→6)-O-β-D-glucopyranoside] and to calculate the concentration range that can be used in skin. Specifically, 15 healthy adult examinees were randomly selected, and test compositions in which the compounds were respectively comprised in an amount of 0.5 wt. %, 1 wt. %, and 3 wt. % (the compositions for skin, comprising an emulsifying agent, a stabilizer, purified water, etc. in addition to the compounds) were dropped in the amount of 20 μl per chamber (IQ chamber, Epitest Ltd, Finland), and patched on the right site of the upper back of the examinees, and then, after 24 hours, the patch was replaced with a new patch. A total of 9 patches were conducted, three times a week for total 3 weeks, in such manner, the skin reactions before and after patch were examined every time, and the skin reactions until 48 hours after removing the final patch were observed, and the average reactivity was observed. The skin reaction was determined according to the criteria of International Contact Dermatitis Research Group (ICDRG). In the above table, “New Material 31” refers to quercetin3-O-[3-O″-(E)-p-coumaroyl][β-D-glucopyranosyl-(1→3)-O-α-L-rhamnopyranosyl-(1→6)-O-β-D-glucopyranoside], and “New Material 32” refers to quercetin3-O-[3-O″-(E)-p-coumaroyl][α-L-rhamnopyranosyl-(1→6)-O-β-D-glucopyranoside].

[4] = fibroblast culture medium, H2O2 500 μM 24 hours, then test material (31, 32: 100 μg/ml) 48 hours, ELISA

Number of examinees who exhibited ±, +, or ++ reactivity, 1st ([3]; 0.5 wt. %, line 1 of 3 (±)): 0 number
Number of examinees who exhibited ±, +, or ++ reactivity, 1st ([3]; 0.5 wt. %, line 2 of 3 (+)): 0 number
Number of examinees who exhibited ±, +, or ++ reactivity, 1st ([3]; 0.5 wt. %, line 3 of 3 (++)): 0 number
Number of examinees who exhibited ±, +, or ++ reactivity, 2nd ([3]; 0.5 wt. %, line 1 of 3 (±)): 0 number
Number of examinees who exhibited ±, +, or ++ reactivity, 2nd ([3]; 0.5 wt. %, line 2 of 3 (+)): 0 number
Number of examinees who exhibited ±, +, or ++ reactivity, 2nd ([3]; 0.5 wt. %, line 3 of 3 (++)): 0 number
Number of examinees who exhibited ±, +, or ++ reactivity, 3rd ([3]; 0.5 wt. %, line 1 of 3 (±)): 0 number
Number of examinees who exhibited ±, +, or ++ reactivity, 3rd ([3]; 0.5 wt. %, line 2 of 3 (+)): 0 number
Number of examinees who exhibited ±, +, or ++ reactivity, 3rd ([3]; 0.5 wt. %, line 3 of 3 (++)): 0 number
Number of examinees who exhibited ±, +, or ++ reactivity, 4th ([3]; 0.5 wt. %, line 1 of 3 (±)): 0 number
Number of examinees who exhibited ±, +, or ++ reactivity, 4th ([3]; 0.5 wt. %, line 2 of 3 (+)): 0 number
Number of examinees who exhibited ±, +, or ++ reactivity, 4th ([3]; 0.5 wt. %, line 3 of 3 (++)): 0 number
Number of examinees who exhibited ±, +, or ++ reactivity, 5th ([3]; 0.5 wt. %, line 1 of 3 (±)): 0 number
Number of examinees who exhibited ±, +, or ++ reactivity, 5th ([3]; 0.5 wt. %, line 2 of 3 (+)): 0 number
Number of examinees who exhibited ±, +, or ++ reactivity, 5th ([3]; 0.5 wt. %, line 3 of 3 (++)): 0 number
Number of examinees who exhibited ±, +, or ++ reactivity, 6th ([3]; 0.5 wt. %, line 1 of 3 (±)): 0 number
Number of examinees who exhibited ±, +, or ++ reactivity, 6th ([3]; 0.5 wt. %, line 2 of 3 (+)): 0 number
Number of examinees who exhibited ±, +, or ++ reactivity, 6th ([3]; 0.5 wt. %, line 3 of 3 (++)): 0 number
Number of examinees who exhibited ±, +, or ++ reactivity, 7th ([3]; 0.5 wt. %, line 1 of 3 (±)): 0 number
Number of examinees who exhibited ±, +, or ++ reactivity, 7th ([3]; 0.5 wt. %, line 2 of 3 (+)): 0 number
Number of examinees who exhibited ±, +, or ++ reactivity, 7th ([3]; 0.5 wt. %, line 3 of 3 (++)): 0 number
Number of examinees who exhibited ±, +, or ++ reactivity, 8th ([3]; 0.5 wt. %, line 1 of 3 (±)): 0 number
Number of examinees who exhibited ±, +, or ++ reactivity, 8th ([3]; 0.5 wt. %, line 2 of 3 (+)): 0 number
Number of examinees who exhibited ±, +, or ++ reactivity, 8th ([3]; 0.5 wt. %, line 3 of 3 (++)): 0 number
average reactivity ([3]; 0.5 wt. %, 9 patches over 3 weeks, 15 examinees, less than 3 is considered a stable composition): 0
Number of examinees who exhibited ±, +, or ++ reactivity, 9th ([3]; 0.5 wt. %, line 1 of 3 (±)): 0 number
Number of examinees who exhibited ±, +, or ++ reactivity, 9th ([3]; 0.5 wt. %, line 2 of 3 (+)): 0 number
Number of examinees who exhibited ±, +, or ++ reactivity, 9th ([3]; 0.5 wt. %, line 3 of 3 (++)): 0 number
Number of examinees who exhibited ±, +, or ++ reactivity, 1st ([3]; 1 wt. %, line 1 of 3 (±)): 0 number
Number of examinees who exhibited ±, +, or ++ reactivity, 1st ([3]; 1 wt. %, line 2 of 3 (+)): 0 number
Number of examinees who exhibited ±, +, or ++ reactivity, 1st ([3]; 1 wt. %, line 3 of 3 (++)): 0 number
Number of examinees who exhibited ±, +, or ++ reactivity, 2nd ([3]; 1 wt. %, line 1 of 3 (±)): 0 number
Number of examinees who exhibited ±, +, or ++ reactivity, 2nd ([3]; 1 wt. %, line 2 of 3 (+)): 0 number
Number of examinees who exhibited ±, +, or ++ reactivity, 2nd ([3]; 1 wt. %, line 3 of 3 (++)): 0 number
Number of examinees who exhibited ±, +, or ++ reactivity, 3rd ([3]; 1 wt. %, line 1 of 3 (±)): 0 number
Number of examinees who exhibited ±, +, or ++ reactivity, 3rd ([3]; 1 wt. %, line 2 of 3 (+)): 0 number
Number of examinees who exhibited ±, +, or ++ reactivity, 3rd ([3]; 1 wt. %, line 3 of 3 (++)): 0 number
Number of examinees who exhibited ±, +, or ++ reactivity, 4th ([3]; 1 wt. %, line 1 of 3 (±)): 0 number
Number of examinees who exhibited ±, +, or ++ reactivity, 4th ([3]; 1 wt. %, line 2 of 3 (+)): 0 number
Number of examinees who exhibited ±, +, or ++ reactivity, 4th ([3]; 1 wt. %, line 3 of 3 (++)): 0 number
Compound: C[C@@H]1O[C@@H](OC[C@H]2O[C@@H](Oc3c(-c4ccc(O)c(O)c4)oc4cc(O)cc(O)c4c3=O)[C@H](O)[C@@H](OC(=O)/C=C/c3ccc(O)cc3)[C@@H]2O)[C@H](O)[C@H](O)[C@H]1O [New Material 32, quercetin3-O-[3-O″-(E)-p-coumaroyl][α-L-rhamnopyranosyl-(1→6)-O-β-D-glucopyranoside]]
inhibition at 100 µg/mL ([1]; Fibroblast, 100 μg/ml, {1−(test sample−control)/(H2O2−control)}×100, read-out: Inhibition effect according to Equation 1, PGE2): 48.3%
PGE2 [1, 4]: 280 pg/mL
inhibition at 100 µg/mL ([2]; Fibroblast, 100 μg/ml, {1−(test sample−control)/(H2O2−control)}×100, read-out: Inhibition effect according to Equation 1, IL-8): 61.1%
IL-8 [2, 4]: 235 pg/mL
